{"source": "patent US20250223626A1", "about": "“METHODS OF DIAGNOSING IBS-D AND SELECTION OF IBS-D TREATMENT” (priority 2022, published 2025)", "key": {"[1]": {"settings": "rats on HFD, 10 days of treatment, compared to controls on HFD (P=0.07)", "experimental": "(§1) Therefore, HFD was used to assess the effects of persistent M. smithii elevation on stool consistency (stool wet weights). Sprague-Dawley rats were placed on a HFD (60% energy from fat [D12492; Research Diets, New Brunswick, NJ]) for 7 weeks. […] Stool collections were performed at baseline, after 7 weeks on HFD, and after the 10-day lovastatin/control treatments. Stool wet weights were determined. Stool and small bowel DNAs were extracted at euthanasia and the absolute abundance of M. smithii was determined by qPCR as described previously."}, "[2]": {"test_system": "Methanobrevibacter smithii", "settings": "rats on HFD, gavaged 10 days with 1.5 mg/ml, compared to controls (water)", "experimental": "as §1"}}, "note": "Entries after “also recorded” stand apart in the source; their conditions may differ.", "data": [{"smiles": "CC[C@H](C)C(=O)O[C@H]1C[C@@H](C)C=C2C=C[C@H](C)[C@H](CC[C@@H](O)C[C@@H](O)CC(=O)O)[C@H]21", "note": "[lovastatin hydroxyacid]", "values": [{"measurement": "stool consistency (stool wet weight)", "setting": "[1]", "result": "normalization"}]}, {"smiles": "CC[C@H](C)C(=O)O[C@H]1C[C@@H](C)C=C2C=C[C@H](C)[C@H](CC[C@@H]3C[C@@H](O)CC(=O)O3)[C@H]21", "note": "[lovastatin lactone]", "values": [{"measurement": "M. smithii absolute load in the small bowel", "setting": "[2]", "result": "decreased; also recorded: reduction"}, {"measurement": "stool consistency (stool wet weight)", "setting": "[1]", "result": "normalization"}]}]}
